In paper PMC7714830, “Quantification of the Cannabinoid Type 1 Receptor Availability in the Mouse Brain” (Frontiers in Neuroanatomy, 2020):
Like-named read-outs stand apart in the source and are kept apart here.

Experiments:
CB1 receptor [1] = target: T1, CB1 receptor (Mus musculus, UniProt P47746); assay: [18F]MK-9470 PET in a CB1 receptor knock-out mouse and a wild-type mouse (re-analysis of the whole time course); type: in vivo; parameters: Two mice, a CB1 receptor-deficient mouse, and a wild-type mouse; from tissue; host or cells: brain of a living wild-type mouse; the CB1-/- mouse serves as the receptor-free control; conditions: CB1 knock-out vs wild-type mouse
T1 sequence (P47746 whole entry): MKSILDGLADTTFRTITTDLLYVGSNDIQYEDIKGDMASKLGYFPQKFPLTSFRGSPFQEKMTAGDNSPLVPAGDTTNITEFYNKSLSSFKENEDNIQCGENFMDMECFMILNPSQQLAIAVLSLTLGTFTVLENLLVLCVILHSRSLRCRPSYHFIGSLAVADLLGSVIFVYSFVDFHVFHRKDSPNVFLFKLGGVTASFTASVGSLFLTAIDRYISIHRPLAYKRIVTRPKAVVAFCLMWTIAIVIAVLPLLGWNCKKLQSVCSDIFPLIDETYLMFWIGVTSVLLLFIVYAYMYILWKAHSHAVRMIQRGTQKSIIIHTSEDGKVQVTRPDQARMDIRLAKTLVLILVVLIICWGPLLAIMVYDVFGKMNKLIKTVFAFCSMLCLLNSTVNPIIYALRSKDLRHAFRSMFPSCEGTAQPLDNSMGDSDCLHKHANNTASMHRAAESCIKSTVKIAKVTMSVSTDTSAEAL
Experimental: (§1) Two mice, a CB1 receptor-deficient mouse, and a wild-type mouse, whose data acquisition is described in Miederer et al. ([2013]), were re-analyzed.
(§2) (A) Left: CB1 receptor knock-out mouse, right: wild-type mouse. Positron emission tomography (PET) images were summed from 40 to 60 min [injected radioactivity: 8.5 MBq (CB1^−/−) and 8.0 MBq (CB1^+/+), anaesthesia: 0.2 ml xylazine/ketamine, data acquisition: 60 min]. (B) Standardized volumes-of-interest (VOI) were drawn for the whole mouse brains (n = 2). Extracted radioactivity concentrations were normalized to the maximum radioactivity concentration in the wild-type mouse.

[2] = parameters: method as in Burns et al., 2007; Liu et al., 2007; conditions: ref Burns et al., 2007, Liu et al.; cited from earlier work
CB1 receptor [3] = target: T1, CB1 receptor; assay: [18F]MK-9470 small animal PET of the mouse brain (%ID/ml, 40–60 min); type: in vivo, mouse (C57BL/6J); parameters: Six male C57BL/6J mice; from tissue; host or cells: brain of living male C57BL/6J mice (in vivo PET); conditions: for [^18F]MK-9470 %ID/ml: PET 40–60 min, mean ± SD
Text: Six male C57BL/6J mice (21.5–28.1 g, 6–9 weeks of age; obtained from the Translational Animal Research Center—TARC of the University Medical Center Mainz) were examined. All applicable international, national, and/or institutional guidelines for the care and use of animals were followed. This study was approved by the respective state authorities (Landesuntersuchungsamt Rheinland-Pfalz).
Isoflurane inhalation anesthesia (2% isoflurane vaporized in 60% oxygen) was used to immobilize the mice, which were positioned in the small animal PET scanner in the headfirst prone position. A venous catheter, which was placed in one of the tail veins, was used to inject [^18F]MK-9470. Together with the injection, a 60-min PET measurement was started with a Focus 120 small animal PET scanner (Siemens/CTI, Knoxville, TN, USA). This small animal PET scanner has lutetium oxyorthosilicate detectors having a size of 1.5 × 1.5 × 10 mm^3 for coincidence detection of photons (time window: 6 ns). The resolution in the center of the field of view is ≤1.4 mm. As part of the quality control, a detector normalization and cross-calibration with a dose calibrator (VDC 404, Veenstra Instruments, Joure, Netherlands) were performed regularly. The PET data acquisition took place in the list mode data format.
The list-mode data, acquired for this study, were sorted into a sinogram matrix with frames of 3 × 20, 3 × 60, 3 × 120, 10 × 300 s (=19 frames). The data were reconstructed with filtered back-projection [ramp filter (cut-off = 0.5)] into a 128 × 128 matrix with 95 slices of 0.8 mm thickness (pixel size 0.87 × 0.87 mm^2). Corrections included detector dead time and random coincidences, which yielded images in the unit Bq/ml.
PET data were co-registered to the T2-weighted magnetic resonance image (MRI) template provided by the PMOD software (version 4.0, Zurich, Switzerland) based on the work of Ma et al. ([2005]) and Mirrione et al. ([2007]). […] The outcome parameter was calculated as %ID/ml = mean value of the radioactivity concentration (in the unit Bq/ml)/injected radioactivity (in the unit Bq) × 100% and included the 40–60 min acquisition interval for individual brain regions. All results were reported as mean ± standard deviation. A two-tailed paired t-test was used to compare means for VOI of different receptor densities and thus, four main comparisons were defined before the analyses: cerebellum vs. pons, caudate putamen vs. pons, cerebellum vs. hippocampus, and hippocampus vs. pons. The global significance level was αglobal = 0.05 and a Bonferroni correction yielded a local significance level of αlocal = 0.0125.
To facilitate the comparison between (quantitative, continuous) PET data and (qualitative) IHC data, the data were classified into four categories, namely no (−), low (+), mean (++) and high (+++) accumulation of the radioactivity concentration or immunohistochemical staining. The IHC data were classified based on visual inspections of the results and their descriptions in the literature sources. Statements such as “little or no,” “few” or “void” led to a classification of “–.” Statements like “low,” “some” or “weak” were classified as “+.” Descriptions like “network of CB1-immunoreactive fibers” or “intensely CB1 receptor-ir fiber meshwork” led to a rating of “++” and statements like “dense meshwork of fibers” or “very high concentration of CB1-immunoreactivity” were rated as “+++.” The PET data were classified based on the outcome parameter %ID/ml, ranging from mean values of 1.5–2.6 %ID/ml, and were subdivided into three categories. That is, signals within the interval 1.5–1.8 %ID/ml lead to a rating of “+.” Parameters within the interval 1.8–2.2 %ID/ml were rated as “++” and signals within the interval 2.2–2.6 %ID/ml were classified as “+++.” As there was no brain region devoid of a PET signal, the category “−” was omitted here.

CB1 receptor [4] = conditions: cited from earlier work
CB1 receptor [5] = conditions: human brain; ref Burns et al., 2007; cited from earlier work
CB1 receptor [6] = assay: [18F]MK-9470 PET in a CB1 receptor knock-out mouse and a wild-type mouse (re-analysis of the whole time course); type: in vivo
Experimental: as §1, §2

CB1 receptor [7] = tested on: CB1 receptor; parameters: method as in Horti et al., 2006; conditions: ref Horti et al., 2006; cited from earlier work
CB1 receptor [8] = tested on: CB1 receptor; parameters: method as in Herance et al., 2011; conditions: knock-out n = 4, wild-type n = 4; period 40–60 min; ref Herance et al., 2011; cited from earlier work
CB1 receptor [9] = target: CB1 receptor; parameters: method as in Burns et al., 2007; Liu et al., 2007; conditions: ref Burns et al., 2007, Liu et al., read-out: affinity to the CB1 receptor, IC50; cited from earlier work
[10] = Tectum mesencephalic: colliculus inferior
[11] = Tectum mesencephalic: colliculus superior

Cc1ccc(OC(C)(C)C(=O)N[C@@H](C)[C@@H](Cc2ccc(OCC[18F])cc2)c2cccc(C#N)c2)nc1 [[^18F]MK-9470, N-(1S,2S)-2–(3-cyanophenyl)-3–[4-(2-[^18F]fluoroethoxy)phenyl]-1-methylpropyl-2-methyl-2-[(5-methylpyridin-2-yl)oxy]propanamide]
binding to CB1 receptors in the mouse brain (CB1 receptor [1]): binds specifically | lipophilicity, logD7.3 [2]: 4.7 | Category of [^18F]MK-9470 accumulation (CB1 receptor [3]; Amygdala): ++ (Parameters within the interval 1.8–2.2 %ID/ml were rated as “++”) | [^18F]MK-9470 %ID/ml (CB1 receptor [3]; Amygdala): 1.87 ± 0.38 %ID/ml | Category of [^18F]MK-9470 accumulation (CB1 receptor [3]; Basal forebrain septum): ++ (Parameters within the interval 1.8–2.2 %ID/ml were rated as “++”) | [^18F]MK-9470 %ID/ml (CB1 receptor [3]; Basal forebrain septum): 2.07 ± 0.29 %ID/ml | Category of [^18F]MK-9470 accumulation (CB1 receptor [3]; Basal ganglia: caudate putamen): +++ (signals within the interval 2.2–2.6 %ID/ml were classified as “+++.”) | [^18F]MK-9470 %ID/ml (CB1 receptor [3]; Basal ganglia: caudate putamen): 2.33 ± 0.40 %ID/ml | Category of [^18F]MK-9470 accumulation (CB1 receptor [3]; Brain stem): ++ (Parameters within the interval 1.8–2.2 %ID/ml were rated as “++”) | [^18F]MK-9470 %ID/ml (CB1 receptor [3]; Brain stem): 1.95 ± 0.36 %ID/ml | Category of [^18F]MK-9470 accumulation (CB1 receptor [3]; Cerebellum (whole region)): ++ (Parameters within the interval 1.8–2.2 %ID/ml were rated as “++”) | [^18F]MK-9470 %ID/ml (CB1 receptor [3]; Cerebellum (whole region)): 2.11 ± 0.40 %ID/ml | Category of [^18F]MK-9470 accumulation (CB1 receptor [3]; Cerebral cortex): ++ (Parameters within the interval 1.8–2.2 %ID/ml were rated as “++”) | [^18F]MK-9470 %ID/ml (CB1 receptor [3]; Cerebral cortex): 1.92 ± 0.32 %ID/ml | Category of [^18F]MK-9470 accumulation (CB1 receptor [3]; Hippocampus): +++ (signals within the interval 2.2–2.6 %ID/ml were classified as “+++.”) | [^18F]MK-9470 %ID/ml (CB1 receptor [3]; Hippocampus): 2.29 ± 0.41 %ID/ml | Category of [^18F]MK-9470 accumulation (CB1 receptor [3]; Hypothalamus): ++ (Parameters within the interval 1.8–2.2 %ID/ml were rated as “++”) | [^18F]MK-9470 %ID/ml (CB1 receptor [3]; Hypothalamus): 1.99 ± 0.34 %ID/ml | Category of [^18F]MK-9470 accumulation (CB1 receptor [3]; Mesencephalon (whole region)): +++ (signals within the interval 2.2–2.6 %ID/ml were classified as “+++.”) | [^18F]MK-9470 %ID/ml (CB1 receptor [3]; Mesencephalon (whole region)): 2.41 ± 0.42 %ID/ml | Category of [^18F]MK-9470 accumulation (CB1 receptor [3]; Olfactory bulb): + (signals within the interval 1.5–1.8 %ID/ml lead to a rating of “+.”) | [^18F]MK-9470 %ID/ml (CB1 receptor [3]; Olfactory bulb): 1.47 ± 0.08 %ID/ml | Category of [^18F]MK-9470 accumulation (CB1 receptor [3]; Substantia grisea centralis): +++ (signals within the interval 2.2–2.6 %ID/ml were classified as “+++.”) | [^18F]MK-9470 %ID/ml (CB1 receptor [3]; Substantia grisea centralis (central gray)): 2.56 ± 0.39 %ID/ml | Category of [^18F]MK-9470 accumulation (CB1 receptor [3]; [10]): +++ (signals within the interval 2.2–2.6 %ID/ml were classified as “+++.”) | [^18F]MK-9470 %ID/ml (CB1 receptor [3]; [10]): 2.48 ± 0.35 %ID/ml | Category of [^18F]MK-9470 accumulation (CB1 receptor [3]; [11]): +++ (signals within the interval 2.2–2.6 %ID/ml were classified as “+++.”) | [^18F]MK-9470 %ID/ml (CB1 receptor [3]; [11]): 2.44 ± 0.37 %ID/ml | Category of [^18F]MK-9470 accumulation (CB1 receptor [3]; Thalamus): +++ (signals within the interval 2.2–2.6 %ID/ml were classified as “+++.”) | [^18F]MK-9470 %ID/ml (CB1 receptor [3]; Thalamus): 2.34 ± 0.35 %ID/ml | Category of [^18F]MK-9470 accumulation (CB1 receptor [3]; Whole-brain): ++ (Parameters within the interval 1.8–2.2 %ID/ml were rated as “++”) | [^18F]MK-9470 %ID/ml (CB1 receptor [3]; Whole-brain): 2.19 ± 0.35 %ID/ml | range of mean values of %ID/ml over brain regions (CB1 receptor [3]; all brain regions, 40–60 min): 1.5–2.6 %ID/ml | coefficients of variation for all brain regions (CB1 receptor [3]; summed images 40–60 min): 5–20% | kinetics in the mouse brain (CB1 receptor [3]; whole brain time course, 60 min): slow kinetics | time of uptake into the mouse brain after injection (CB1 receptor [3]; whole brain, i.v. tail vein): ≤ 5 min | coefficient of variation of whole-brain radioactivity concentration (CB1 receptor [3]; whole brain, interval from maximum to end of acquisition): approximately 12% | mean value of radioactivity concentration after reaching maximum (CB1 receptor [3]; whole mouse brain, from maximum until the end of the acquisition (60 min)): approximately 2.2 %ID/ml | time to plateau after injection (CB1 receptor [4]; rat brain, ref Casteels et al., 2012): approximately 300 min | portion of the signal allocated to unspecific binding (CB1 receptor [4]; rats, receptor blocking with rimonabant before PET, ref Miederer et al., 2013): 58% | time to plateau after injection (CB1 receptor [5]): approximately 120 min | level of the unspecific signal in the CB1 receptor knock-out mouse, of the maximum signal measured in the wild-type mice (CB1 receptor [6]; whole brain VOI, n = 2): about 20% | unspecific binding, of the signal present in a wild-type mouse (CB1 receptor [6]; whole brain, period of 40–60 min): approximately 20%

[11CH3]Oc1ccc(-c2c(C#N)c(C(=O)NN3CCCCC3)nn2-c2ccc(Cl)cc2Cl)cc1 [[^11C]OMAR, 1–(2,4-dichlorophenyl)-4-cyano-5–(4-[^11C]methoxyphenyl)-N-(piperidin-1-yl)-1H-pyrazole-3-carboxamide]
%ID/ml values in mouse brain regions (CB1 receptor [7]): 2.5–6 %ID/ml | lower uptake in knock-out mice as compared to wild-type mice (CB1 receptor [8]): 50%

Cc1ccc(OC(C)(C)C(=O)N[C@@H](C)[C@@H](Cc2ccc(OCCF)cc2)c2cccc(C#N)c2)nc1 [[^18F]MK-9470, N-(1S,2S)-2–(3-cyanophenyl)-3–[4-(2-[^18F]fluoroethoxy)phenyl]-1-methylpropyl-2-methyl-2-[(5-methylpyridin-2-yl)oxy]propanamide]
IC50 (CB1 receptor [9]): 0.7 nM
